One data set relates to IDH1(R132H)-86b. The experiment in a line: SplitLuc CETSA target engagement in HEK293T cells. The data set is classed as cell-based. The settings on record: relative to 119.
In another data set the test system is U87-mIDH1 (R132H) cells. The experiment in a line: Cellular 2-HG production assay. The data set is classed as cell-based, human.
A short description of data set [1]: Mouse pharmacokinetic study. It counts as in vivo.
Data set [2] relates to U87 mIDH1 (R132H) xenograft. The data set is described as follows: PK/PD in U87 R132H mIDH1 xenograft mouse model. Particulars: single 30 mg/kg p.o. The data set is classed as in vivo.
Data set [3] in a line: PK/PD in U87 R132H mIDH1 xenograft mouse model. It counts as in vivo. The settings on record: female, athymic nude (nu/nu NCr), mouse, in vivo, po, 30 mg/kg.
The next data set addresses IDH1 R132H (Homo sapiens, UniProt O75874, R132H). The data set is described as follows: diaphorase/resazurin-coupled mIDH1 R132H enzyme assay. The data set is classed as biochemical. On the technique in general: The colour change of resazurin is a common sign of viable cells or microbes.
Another data set deals with IDH1 R132C (Homo sapiens, UniProt O75874, R132C). The experiment in a line: diaphorase/resazurin-coupled mIDH1 R132C enzyme assay. The data set is classed as biochemical. Particulars: relative to compound 87.
Data set [4] is described as follows: Parallel artificial membrane permeability assay. It counts as in vitro ADME.
A short description of another data set: Kinetic solubility assay. It counts as physicochemical. The settings on record: phosphate buffer, pH 7.4.
A short description of data set [5]: Single time point rat liver microsome stability assay. The data set is classed as in vitro ADME. Particulars: rat liver microsomes, pH 7.4. A general note: Microsomes from liver hold many membrane-bound enzymes, among them those of drug oxidation.
A further data set has as its target WT IDH1 (Homo sapiens, UniProt O75874). The experiment in a line: IDH1-WT selectivity assay. It counts as biochemical.

SMILES strings stand for the structures. Converted amounts (≈) assume the structure as drawn.

Chain of IDH1 R132H (O75874 whole entry R132H): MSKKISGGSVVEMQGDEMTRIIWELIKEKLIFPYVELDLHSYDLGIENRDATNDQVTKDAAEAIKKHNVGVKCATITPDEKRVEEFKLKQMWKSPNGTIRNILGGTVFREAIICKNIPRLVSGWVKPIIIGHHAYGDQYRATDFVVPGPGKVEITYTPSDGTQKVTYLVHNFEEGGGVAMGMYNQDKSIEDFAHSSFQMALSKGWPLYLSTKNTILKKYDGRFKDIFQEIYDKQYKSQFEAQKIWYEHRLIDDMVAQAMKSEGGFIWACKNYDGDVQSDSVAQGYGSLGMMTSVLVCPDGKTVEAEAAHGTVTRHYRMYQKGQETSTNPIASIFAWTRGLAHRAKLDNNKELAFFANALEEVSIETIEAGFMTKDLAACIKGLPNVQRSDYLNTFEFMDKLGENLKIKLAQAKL
Chain of IDH1 R132C (O75874 whole entry R132C): as the sequence (O75874 whole entry R132H) above, with H132C counted along it
Chain of WT IDH1 (O75874 whole entry): as the sequence (O75874 whole entry R132H) above, with H132R counted along it

As for `CCc1ccc(Cl)cc1-n1c(C=C(C)C)c(C(=O)N2CCNCC2)cc(-c2nc(-c3ccc(Cl)cc3)cs2)c1=O` (single isomer, unassigned) [(+)-119], the “fold more potent than 119 in HEK293 engagement assay” value in the data set on IDH1(R132H)-86b came to 13 fold. The “2-HG levels lowered by (%)” value in the data set on U87-mIDH1 (R132H) cells (100 nM, U87-mIDH1 (R132H) cells, 48 h) was “more than 94%”. The IC50 in the data set with U87-mIDH1 (R132H) cells (Homo sapiens, read-out: potency at reducing 2-HG in the cellular assay) is under 0.7 nM. The “fold more potent than 119 in U87 2-HG assay” value in the data set on U87-mIDH1 (R132H) cells (relative to 119) stood at 30 fold. Moreover, the “brain AUC” value in data set [1] (CD1 mice, single 30 mg/kg oral dose) is 6996 ng·h/g. The Kp (as a rule, tissue or fluid exposure divided by exposure in the circulation) in [1] (male, CD1, mouse, brain/plasma, po, 30 mg/kg) stood at 0.28. For the same compound, in data set [1] (male, CD1, mouse, plasma, po, 30 mg/kg), the Cmax (in general, the maximum level reached in the sampled fluid or tissue) was about 3340 nM. Besides, in data set [2] (48 h, 30 mg/kg), the “average concentration in tumor at 48 h” value worked out at 7 µM. In data set [2] (from the 16 h time point onwards), the “reduction in tumor 2-HG compared to AG-120” value was “greater reduction in tumor 2-HG”.

`N#Cc1ccnc(N2C(=O)CC[C@H]2C(=O)N(c2cncc(F)c2)[C@H](C(=O)NC2CC(F)(F)C2)c2ccccc2Cl)c1` [AG-120]: in [3], the concentration at 24 h stood at 1600 nM, the concentration at 36 h turned out to be 1400 nM and the concentration at 48 h was found to be 770 nM.

Take `CCc1cccc(CC)c1-n1c(C=C(C)C)c(C(=O)N2CCNCC2)cc(-c2nc(-c3ccc(Cl)cc3)cs2)c1=O` [Compound 92, 3-(4-(4-Chlorophenyl)thiazol-2-yl)-1-(2,6-diethylphenyl)-6-(2-methylprop-1-en-1-yl)-5-(piperazine-1-carbonyl)pyridin-2(1H)-one]: the “IDH1 R132H IC50 Fold improvement over 87” value on IDH1 R132H (relative to compound 87) was 4.8 fold. The “IDH1 R132C IC50 Fold improvement over 87” value at IDH1 R132C was 26 fold. Moreover, the “PAMPA (10^−6 cm/s)” value in data set [4] (pH 7.4) is on record as 225 10^−6 cm/s.

Take `CCc1cccc(CC)c1-n1c(C=C(C)C)c(C(=O)N2CCNC(C)C2)cc(-c2nc(-c3ccc(Cl)cc3)cs2)c1=O` (stereo not shown) [Compound 99, 3-(4-(4-Chlorophenyl)thiazol-2-yl)-1-(2,6-diethylphenyl)-5-(3-methylpiperazine-1-carbonyl)-6-(2-methylprop-1-en-1-yl)pyridin-2(1H)-one]: in “Kinetic solubility assay”, the solubility – broadly, how much of the substance goes into solution per volume – at 6 h is under 1 µg/mL. The half-life (in general, the time in which the quantity being followed falls by half) at 1 μM in data set [5] was 25 min. The Papp (usually a coefficient for how fast a substance crosses the barrier) at 30 min, 0.05 mM in data set [4] (PAMPA, pH 7.4, PAMPA (10^−6 cm/s)) worked out at 213 ×10⁻⁶ cm/s.

Take `CCc1cccc(CC)c1-n1c(C)c(C(=O)N2CCNCC2)cc(-c2nc(-c3ccc(Cl)cc3)cs2)c1=O` [Compound 87, 3-(4-(4-Chlorophenyl)thiazol-2-yl)-1-(2,6-diethylphenyl)-6-methyl-5-(piperazine-1-carbonyl)pyridin-2(1H)-one]: the “fold improvement in potency compared to analog 70” value on IDH1 R132H (mIDH1 R132H, relative to 70) turned out to be 7 fold. In “Kinetic solubility assay”, the kinetic solubility (usually the concentration staying in solution when a stock, usually in DMSO, is diluted into the medium) at 6 h is 6.7 µM (≈ 3.67 µg/mL).

Regarding `CCc1cccc(CC)c1-n1c(C)c(C(=O)NC)cc(-c2nc(-c3ccc(Cl)cc3)cs2)c1=O` [Compound 70, 5-(4-(4-Chlorophenyl)thiazol-2-yl)-1-(2,6-diethylphenyl)-N,2-dimethyl-6-oxo-1,6-dihydropyridine-3-carboxamide], the solubility (kinetic) at 6 h in “Kinetic solubility assay” was under 1 µM.

As to `COc1ccc(OC)c(-n2c3c(cc(-c4nc(-c5ccc(Cl)cc5)cs4)c2=O)C(=O)CC(C)(C)C3)c1` [Compound 1, 3-(4-(4-Chlorophenyl)thiazol-2-yl)-1-(2,5-dimethoxyphenyl)-7,7-dimethyl-7,8-dihydroquinoline-2,5(1H,6H)-dione], the “off-target activity against WT IDH1” value on WT IDH1 was “no readout interference and off-target activity against WT IDH1”.
